Source: PubChem BioAssay (NCI)
Several values for one entry are separate records, joined by “and”; a condition that tells them apart may be missing. Identical values can stand only once.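 Where inhibition never reached the appropriate level, the endpoint shown equals the highest concentration tested. Otherwise, values were interpolated linearly from a five-concentration, 48-hour dose response in 96-well plates. The concentration for 50% growth inhibition is given as GI50. The concentration for full growth arrest is given as TGI.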

How the values were obtained:
Assay in all cases: NCI-60 cell line screen, 48 h
A498 renal = test system: A498 renal
CCRF-CEM leukemia = test system: CCRF-CEM leukemia
HCT-116 colon = test system: HCT-116 colon
HCT-15 colon = test system: HCT-15 colon
HOP-62 NSCLC = test system: HOP-62 NSCLC
HS 578T breast = test system: HS 578T breast
NCI-H226 lung = test system: NCI-H226 lung
NCI-H522 lung = test system: NCI-H522 lung
SF-539 CNS = test system: SF-539 CNS
UO-31 renal = test system: UO-31 renal

| SMILES | GI50 (A498 renal) | TGI (A498 renal) | GI50 (CCRF-CEM leukemia) [µM] | TGI (CCRF-CEM leukemia) [µM] | GI50 (HCT-116 colon) | TGI (HCT-116 colon) | GI50 (HCT-15 colon) | TGI (HCT-15 colon) | GI50 (HOP-62 NSCLC) | TGI (HOP-62 NSCLC) | GI50 (HS 578T breast) | TGI (HS 578T breast) | GI50 (NCI-H226 lung) | TGI (NCI-H226 lung) | GI50 (NCI-H522 lung) | TGI (NCI-H522 lung) | GI50 (SF-539 CNS) | TGI (SF-539 CNS) | GI50 (UO-31 renal) | TGI (UO-31 renal) |
| --- | --- | --- | --- | --- | --- | --- | --- | --- | --- | --- | --- | --- | --- | --- | --- | --- | --- | --- | --- | --- |
| COc1ccc(/C=C/C(=O)/C=C(/C=C/c2ccc(OC)c(OC)c2)OB(F)F)cc1OC | 1.83 µM | 5.12 µM | 0.323 | 2.63 | 0.321 µM | 1.09 µM | 0.286 µM | 1.12 µM | 2.46 µM | 7.05 µM | 1.31 µM | 8.15 µM | 2 µM | 6.88 µM | 0.291 µM | 1.45 µM | 1.18 µM | 3.63 µM | 0.652 µM | 3.72 µM |
| O=C(CCl)Nc1ccccc1SCc1cc(Cl)cc2c1OCOC2 | 12.9 µM | 26.2 µM | 2.18 | 5.35 | 4.64 µM | 16.8 µM | 6.4 µM | 21.6 µM | 19.8 µM | 41.5 µM | 6.25 µM | 38.9 µM | 11.2 µM | 35.6 µM | 1.85 µM | 4 µM | 15.3 µM | 28.7 µM | 2.95 µM | 15 µM |
| COC(=O)c1ccc(-c2nc3cc(F)c(F)cc3nc2C#N)cc1 | 14.4 µM | 23.9 µM | 2.27 | 18.7 | 7.84 µM | 14.6 µM | 1.59 µM | 6.47 µM | 9.9 µM | 18 µM | 1.57 µM | 4.79 µM | 9.39 µM | 21.4 µM | 6.36 µM | 35.4 µM | 10.7 µM | 18.7 µM | 11.2 µM | 33.5 µM |
| Clc1ccc(N2COOC3(OOC2)C2CC4CC(C2)CC3C4)cc1 | 11.9 µM | > 100 µM | 2.81 |  | 4.1 µM | > 50.2 µM | 0.864 µM | > 41.9 µM | 13.9 µM | 38.6 µM | 8.99 µM | > 100 µM | > 61.2 µM | > 100 µM | 1.75 µM | 6.91 µM | 4.74 µM | 59.3 µM | 0.579 µM | 2.21 µM |
| CCNCCNc1cc(-c2ccc(Cl)cc2)c(C#N)c2nc3ccccc3n12 | 2.01 µM | 3.52 µM | 0.49 | 2.41 | 1.27 µM | 2.59 µM | 1.25 µM | 2.64 µM | 2.37 µM | 5.4 µM | 2.2 µM | 4.68 µM | 1.79 µM | 4.31 µM | 2 µM | 3.84 µM | 1.72 µM | 3.22 µM | 1.49 µM | 2.94 µM |
| O=C1CC2(CCCc3sccc32)C(=O)N1 (stereo not drawn) |  | > 100 µM |  | > 100 |  | > 100 µM |  | > 100 µM |  | > 100 µM |  | > 100 µM |  | > 100 µM |  | > 100 µM |  | > 100 µM |  | > 100 µM |
| Cc1c(C(=O)CCl)c(=O)n(-c2ccccc2)n1C | 1.24 µM | 11 µM | 1.01 | 4.82 | 2.86 µM | 10.4 µM | 3.59 µM | 15.5 µM | 11.5 µM | 27.3 µM | 0.922 µM | 5.52 µM | 13.3 µM | 33.2 µM | 1.46 µM | 3.23 µM | 7.19 µM | 22.9 µM | 3.24 µM | 18.5 µM |
| Cc1c(C(=O)N/N=C/c2ccc(O)cc2)nnn1-c1ccnc2c(C(F)(F)F)cccc12 | 36.6 µM | > 100 µM | > 100 | > 100 | 50.1 µM | > 100 µM | > 100 µM | > 100 µM | 17.5 µM | 37 µM | 44.6 µM | > 100 µM | 36.9 µM | > 100 µM | 49.9 µM | > 100 µM | 42 µM | > 100 µM | > 100 µM | > 100 µM |
| COc1ccc(/C=C(\C#N)n2nnc3cc(Cl)ccc32)cc1 | 0.201 µM | 3.11 µM | 0.431 | > 100 | 0.412 µM | 26.2 µM | 0.328 µM | 11.4 µM | 0.887 µM | 11.1 µM | 2.55 µM | 9.37 µM | 1.27 µM | > 23.3 µM | 0.18 µM | 0.704 µM | 1.25 µM | 3.5 µM | 2.2 µM | 32.4 µM |
| c1ccc(Oc2c3ccccc3nc3ccccc23)cc1 | 4.49 µM | 25.8 µM | 1.12 | > 100 | 0.714 µM | 3.13 µM | 3.06 µM | 12.3 µM | 3.53 µM | 12.3 µM | 6.99 µM | > 100 µM | 6.89 µM | 27.1 µM | 2.22 µM | 10.7 µM | 2 µM | 5.22 µM | 5.64 µM | 19.1 µM |
| CN(C)CCCNC(=O)c1cc(NC(=O)c2cc(NC(=O)CCCN3c4ccccc4C=Cc4ccccc43)cn2C)cn1C | 22.4 µM | 53.3 µM | 2.82 | 12.7 | 3.35 µM | > 100 µM | 25.7 µM | 82.7 µM | 10.2 µM | > 100 µM | 4.87 µM | 40 µM | 19.4 µM | > 100 µM | 4.11 µM | 19.8 µM | 5.57 µM | 33.5 µM | 23.5 µM | 59.7 µM |
| CC1/C=C/C=C/CC/C=C/C=C/C=C/C=C/C(OC2OC(C)C(O)C(N)C2O)CC2OC(CC(O)C(O)CCC(O)CC(O)CC(O)CC(=O)OC(C)C(C)C1O)CC(O)C2C(=O)O (stereo not drawn) | 25.8 µg/mL | 33.2 µM and 46.5 µg/mL |  | 59.4 | 37.7 µg/mL | 32.1 µM and 112 µg/mL | 43.8 µg/mL | 82.2 µM and 150 µg/mL | 25.4 µg/mL | 35.8 µM and 55.3 µg/mL | 32.5 µg/mL | 55.1 µM and 66.9 µg/mL | 28.7 µg/mL | 28.3 µM and 53.6 µg/mL | 29.8 µg/mL | 34.3 µM and 53.7 µg/mL | 28 µg/mL | 32.3 µM and 64.1 µg/mL | 20 µg/mL | 35.8 µM and 40.6 µg/mL |
| C[C@@H](Oc1cc(-c2cnn(C3CCNCC3)c2)cnc1N)c1c(Cl)ccc(F)c1Cl | 1.51 µM | 5.34 µM | 0.621 | 5.13 | 0.619 µM | 4.77 µM | 2.4 µM | > 10 µM | 2.57 µM | > 10 µM | 0.966 µM | 6.25 µM | 0.701 µM | > 10 µM | 1.3 µM | 3.2 µM | 1.8 µM | 3.5 µM | 1.08 µM | 4.74 µM |
